Assay results as given in patent US20110236393A1, “MONOCLONAL ANTIBODY PRODUCTION IN B CELLS AND USES THEROF” (Duke University, priority 2008, published 2011).

How the values were obtained:
[1] = test system: PBMC infected with EBV (B95-8); test: EBV transformation efficiency (EBV-induced LCL outgrowth following PBMC infection); type: cell-based, human; settings: for increase of EBV-mediated transformation efficiency: relative to DMSO (set to 1), LCL positive wells at six weeks post infection
Experimental: FIGS. 3A and 3B are graphical plots showing the inhibition of ATM and Chk2 kinases increased EBV transformation efficiency. […] The percentages of wells positive for LCLs at six weeks post infection were plotted relative to the amount of B95-8 virus used per well. The efficiency of transformation was determined by the amount of virus necessary to induce 63% positive wells as indicated by a Poisson's distribution. This value was set to 1 for the DMSO treated infections. The difference between DMSO and 5 μM ATMi treated infections was ˜30-fold increased efficiency in the presence of 5 μM ATMi. In FIG. 3B similar experiments were performed using DMSO (diamond), 2 μM Chk2i II (square), or 5 μM Chk2i II (triangle).
Methods of infecting B cells with EBV are known to those of skill in the art. In some embodiments B cells can be infected with EBV as disclosed in the Examples below. In some embodiments primary human peripheral blood mononuclear cells (PBMCs) can be infected with the EBV strain B95-8 with dilutions starting from a multiplicity of infection such that all B cells express the EBV latent gene expression program (approximately 100 particles/cell) through a dilution where no LCLs grow out. Culturing of the EBV-infected cells in RPMI 1640, 10% FCS, antibiotics, and in the presence of cyclosporine to suppress T cell activity, allows for the outgrowth of LCLs at approximately 1-5% efficiency (transformant/infected cell) within 5 weeks. Scoring of LCL outgrowth can be performed using techniques and analytical equipment as is know to those of skill in the art. By way of example and not limitation, scoring of LCL outgrowth can be performed using a Cellomics Vti Array Scan instrument (ThermoFisher Scientific, Waltham, Mass., United States of America) following Calcein-AM live cell fluorescent staining, which allows for an unbiased readout of LCL outgrowth. […]
Likewise, the downstream ATM target, Chk2, was evaluated for its ability to inhibition EBV-mediated proliferation of B cells. […]

[2] = test system: CD19+ B cells of CFSE-stained PBMC; test: CFSE/CD19 B cell proliferation after EBV infection of PBMC; type: cell-based, human; settings: for B cell proliferation in the absence of EBV: 5 μM, no EBV, six days post treatment; for B-cell proliferation (CD19+/CFSElo cells of total PBMCs): EBV infection in presence of 1, 2, 5, 10 μM inhibitor, 14 days post infection
Text: FIGS. 4A, 4B and 4C show inhibition of ATM or Chk2 increased the proliferation of B cells following EBV infection. FIG. 4A is a dot plot of EBV-mediated proliferation following infection of CFSE-stained PBMC, detected by FACS using CD19-PE staining of B cells and CFSE to monitor cell divisions, at 2 and 6 days post infection. At day 2 post infection there was little proliferation, while by day 6 there was clear B cell proliferation induced by the virus. FIG. 4B is a histogram illustrating the effect of CFSE-stained PBMC infected with EBV in the presence of increasing amounts of ATMi or Chk2i (0.1% DMSO, 1 μM, 2 μM, 5 μM, and 10 μM). The percentage of CD19+/CFSElo cells of total PBMCs at 14 days post infection are plotted. The data shown are the average values from two different normal donors with error bars reflecting the standard error. […] FIG. 4C includes dot plots of the proliferation of CFSE-stained PBMC treated with DMSO, 5 μM ATMi, 5 μM Chk21, or infected with EBV. Six days post treatment/infection cells were stained with CD19-PE antibody and proliferation of B cells was assessed. […] The difference in relative B cell proliferation at day six between FIGS. 4A and 4C was due to normal donor variation.
To further characterize the ATM- and Chk2-dependent block to EBV-mediated transformation, B cell proliferation early after infection was analyzed. PBMC were infected and B cell proliferation was followed over time using the fluorescent dye CFSE and CD19 staining of B cells. CFSE staining assays proliferation as its fluorescence is halved in daughter cells. PBMC were stained with the cell permeable dye carboxyfluorescein succinimidyl ester (CFSE). This dye enters the cytoplasm and is cleaved to fluoresce immediately by intracellular esterases. The dye is maintained in cells at a concentration that divides by half with each cell division. Thus, each two-fold reduction of CFSE fluorescence readout by flow cytometry correlates with one cycle of proliferation. CFSE-labeled PBMC were infected with EBV and B cell proliferation was monitored by CD19-PE or APC labeling cells at different days after infection. Flow cytometry was used to analyze the CD19 and CFSE levels in gated live cells (by forward versus side scatter). The percentage of CD19+ cells that have proliferated (CFSElo) relative to total PBMC cell numbers were plotted to indicate a relative proliferation index in panel B of FIG. 4. Using the CD19 marker and CFSE the proliferation of B cells during the early stages of transformation were specifically followed (FIG. 4A).
The above experiments were followed with washout and time of addition experiments using either ATM or Chk2 inhibitor. EBV-infected B cells were determined to be sensitive to the inhibitors between 4 and 8 days after infection. […]

[3] = test system: IgG+ memory B cells infected with EBV B95-8; test: Outgrowth of EBV-infected IgG+ memory B cells (positive wells at 4 weeks); type: cell-based, human; settings: EBV B95-8 MOI 5, CpG 2.5 μg/mL, Chk2i 5 μM, 1,000 and 300 cells per well
Text: This Example pertains to the evaluation of whether inhibition of the DDR, in particular Chk2, is capable of increasing the efficiency of EBV transformation of memory B cells and whether the frequency of antibody secreting cells will increase. As a positive control, CpG 2006 TLR9 agonist was included either alone or together with Chk21. The CpG employed was CpG 2006 (Hartmann and Krieg, The Journal of Immunology, 2000, 164: 944-952.). The Chk2i employed was Chk2i II (Arienti et al., 2005 J. Med Chem 48:1873-1875).
Normal donor peripheral blood mononuclear cells (PBMC) were sorted to >95% pure IgG+ memory B cells using a scheme of positive selection for CD19 and CD27 and negative selection of IgM, IgD, and IgA. Cells were then infected with EBV B95-8 strain at an MOI of 5 and either DMSO, CpG (2.5 μg/mL), Chk2i (5 μM), or CpG +Chk21. Cells were seeded in 96-well plates with 50,000 lethally irradiated J774A.1 cells at different amounts. […] Wells were analyzed at 4 weeks for outgrowth and positive wells are plotted as a percentage for each condition. […] These were measured by IgG-specific ELISA.

CD19+ B cells = test: B cell number after mitogen stimulation (flow cytometry count); type: cell-based, human; settings: 5 μM Chk2i II vs DMSO, different time points
Experimental: FIG. 11 is bar graph showing that Chk2 […] the total B cell number following CpG treatment or EBV infection. PBMC were stimulated with CpG 2006 (2.5 μg/mL) or infected with EBV (B95-8, MOI 5). CD19+ B cells were assayed 7 days after treatment of infection using flow cytometry. The total number of viable CD19+ B cells is plotted.
FIG. 12 is a histogram showing that Chk2 inhibition increased B cell number following CpG or CpG system stimulation. Cells were assayed at different time points after stimulation. Circles are CpG treated samples and squares are CpG system treated samples. Open symbols are DMSO-treated and closed symbols are Chk21-treated.
Inhibition of the DDR increased B Cell proliferation in response to mitogens This Example pertains to inhibition of the DDR signaling pathway as a means to increase B cell mitogen induced proliferation. In FIG. 11 inhibition of Chk2 increased the number of B cells proliferating following either CpG DNA treatment or EBV infection as B cell mitogens. […] Total B cell number refers to CD19+ cells gated for viability using forward and side scatter and normalized to polystyrene beads.
The proliferation of cells in response to a combination of mitogenic signals was also assayed in the presence of a DNA damage response inhibitor. […] Cells were counted at different time points using the assay described in Example 10. […]

[4] = test system: memory B cells from chronic HIV-1-infected patients; test: Frequency of IgG positive cell clones of EBV transformed memory B cells; type: cell-based, human; settings: EBV transformation in presence vs absence of Chk2i II
Text: FIG. 13 is a scatter plot of the frequency of IgG positive cell clones of EBV transformed memory B cells from chronic HIV-1-infected patients in the presence or absence of Chk2i II. An increase in the frequency of IgG positive cell clones in the presence of Chk2i II was observed.
Identification of a HIV-Specific Neutralizing Antibody Following EBV Transformation of Memory B Cells from a Patient Chronically Infected with HIV in the Presence of an Inhibitor of the DNA Damage Response Using the methods of the presently disclosed subject matter, memory B cells from a chronic HIV-1-infected patient were EBV transformed. An increase in the frequency of IgG positive cell clones in the presence of Chk2i II was observed (FIG. 13). It was then determined whether these antibodies would specifically recognize HIV glycoproteins and whether they had biological (e.g. neutralizing) activity. Several potentially HIV-1 neutralizing antibodies were identified during initial screening of the cell culture supernatants. One of these was cloned into a hetero-hybridoma cell line and the IgG mAb was purified (SMB2-2). The mAb bound to HIV-1 gp120 and gp140 proteins (FIG. 14) and captured HIV-1 virions (FIG. 15) and neutralized infection of HIV-1 strains SF162 and MN in vitro (FIG. 16). In preliminary experiments, SMB2-2 neutralized infection of HIV-1 strains SF162 and MN in vitro with an IC50˜10 μg/mL. […]

[5] = test system: Chk1 and over 30 other serine/threonine kinases; settings: Arienti et al., 2005; cited from earlier work

SMILES | increase of EBV-mediated transformation efficiency ([1]; 2 μM inhibitor) | increase of EBV-mediated transformation efficiency ([1]; 5 μM inhibitor) [fold] | B cell proliferation in the absence of EBV [2] | B-cell proliferation (CD19+/CFSElo cells of total PBMCs) [2] | EBV transformation efficiency (in words) ([1]; 2 μM and 5 μM vs DMSO) | outgrowth of memory B cells (positive wells) [3] | B cell number following CpG stimulation (CD19+ B cells) | B cell number following CpG system stimulation (CD19+ B cells; CpG DNA, anti-Ig, IL-2, IL-10) | frequency of IgG positive cell clones [4] | specificity over Chk1 and over 30 other serine/threonine kinases [5]
O=c1cc(-c2cccc3c2Sc2ccccc2S3)oc(N2CCOCC2)c1 [ATMi] | approximately 3 fold | ~30 | No effect | dose dependent increase | – | – | – | – | – | –
CC(=O)c1ccc2c(c1)C=C(c1ccc(Oc3ccc(Cl)cc3)cc1)C2 [Chk2i II] | – | – | No effect | dose dependent increase | dramatic and dose-dependent increase | increased the ability of B cells to grow out | increased | increased | increase | exquisite specificity
